This note sets out measurements from US7652017B2, “Remedies and/or preventives for nervous system disorders” (Mitsubishi Tanabe Pharma Corporation, priority 1999, dated 2010).

A short description of test [1]: Action on disturbance of passive avoidance behavior in rat (5-minute ischemia). The class given is in vivo. The protocol:
Bilateral vertebral arteries of Wister male rats weighing 250 to 300 g were electrically cauterized before 48 hours from ischemic induction to prepare rats showing no neurological symptom such as hemiplegia. Only vertebral arteries of rats were cauterized to prepare rats as sham operation group. Before 30 minutes from ischemic induction, 0.1 mg/kg-b.w. or 1 mg/kg-b.w. of 5-methyl-2-(1-piperazinyl)benzenesulfonic acid monohydrate suspended in distilled water was administered orally to the rat of drug administration group and the equivalent dose of distilled water was administered to the rat of control group. The experiment was conducted by using the apparatus consisting of the bright room (50×50×50 cm) with 100 W lamp and the dark room (20×14×20 cm). The rat electrically cauterized bilateral vertebral arteries was put in the bright room to count the transit time to the dark room. The transit time was identified the reaction latency in the acquisition trial.
The guillotine door was closed when the rat entered into the dark room and the rat was given electrical shock (2.9 mA, 5 seconds) from the floor grid to finish the acquisition trial.
Ischemia was inducted by 5-minutes' bilateral occlusion of the common carotid arteries under ether anesthesia. […] During ischemia and after recirculation, until recovery of righting reflex, the rats were put on the heating mat to maintain their body temperature. After 48 hours from recirculation, the retention trial was conducted. As the same manner as the acquisition trial, the rat put in the bright room had been observed for at most 300 seconds to count the transit time to the dark room (the reaction latency).
The action on disturbance of passive avoidance in rat was observed by the same method as Example 1 except for intravenously administering 0.03 mg/kg-b.w. or 0.3 mg/kg-b.w. of 5-n-propyl-2-(1-piperazinyl)benzenesulfonic acid suspended in distilled water instead of 5-methyl-2-(1-piperazinyl)benzenesulfonic acid monohydrate as a drug.

Test [2] concerns hippocampus CA1 pyramidal cells. Nature of the test: Action on delayed neuronal cell death in rat (10-minute forebrain ischemia). The class given is in vivo. The method, then:
Bilateral vertebral arteries of Wister male rats weighing 250 to 300 g were electrically cauterized before 24 hours from ischemic induction to prepare rats showing no neurological symptom such as hemiplegia. Only vertebral arteries of rats were cauterized to prepare rats as sham operation group. Before 30 minutes from ischemic induction, 0.1 mg/kg-b.w. or 1 mg/kg-b.w. of 5-methyl-2-(1-piperazinyl)benzenesulfonic acid monohydrate suspended in distilled water was administered orally to the rat of drug administration group and the equivalent dose of distilled water was administered to the rat of control group.
Ischemia was inducted by 10-minutes' bilateral occlusion of the common carotid arteries under ether anesthesia. […] During ischemia and after recirculation, until recovery of righting reflex, the rats were put on the heating mat to maintain their body temperature. After 72 hours from recirculation, the brain of the rat was fixed by perfusion with a fixative, FAM (formalin:acetic acid:methanol ▭1:1:8). After that, it was embedded by paraffin and a 5 μm thick slice of the forebrain was prepared in an usual manner Haematoxylin stain was conducted and the number of hippocampus CA1 pyramidal cells were counted to obtain the number of the cells per mm (neuronal density). The number of hippocampus CA1 pyramidal cells in sham operation group was 166.0±6.7. After 10 minutes ischemia induction, the number of hippocampus CA1 pyramidal cells in control group (distilled water administration group) was 31.2±13.3 and about 80% of total neuronal cells were led into degeneration and necrosis. The number of hippocampus CA1 pyramidal cells in 0.1 and 1 mg/kg 5-methyl-2-(1-piperazinyl)benzenesulfonic acid monohydrate oral administration group was 74.3±16.0 and 104.1±21.9, respectively. Both of them inhibited neuronal cell death dose-dependently and there is a significant difference between 1 mg/kg administration group and the control group.
The action on delayed neuronal cell death in rat was observed by the same method as Example 1 except for intravenously administering 0.03 mg/kg-b.w. or 0.3 mg/kg-b.w. of 5-n-propyl-2-(1-piperazinyl)benzenesulfonic acid suspended in distilled water instead of 5-methyl-2-(1-piperazinyl)benzenesulfonic acid monohydrate as a drug.

The test system of test [3] is ischemic/reperfused myocardium. Nature of the test: Regional cardiac function (% SS) in ischemic/reperfused myocardium in dogs. It counts as in vivo, dog. Particulars: 3 μg/kg i.v. 5 minutes before reperfusion; 30-min LAD occlusion, 1 h reperfusion. The method, then:
The chest of mongrel dogs (adults, male and female) was opened under anesthesia with pentobarbital (30 mg/kg, i.v.) and a portion of the left coronary anterior descending (LAD) was dissected. A catheter-tip-pressure transducer (Millar; MPC-500) was inserted from the left carotid artery into the left ventricle to determine the left ventricular pressure and its first differential value (dP/dt). A pair of crystal probes were mounted in the LAD region to determine changes in regional segment length. Diastolic segment length (EDL; threshold point of dP/dt) and systolic segment length (ESL; dP/dt(−) max point) were determined from the waveform of dP/dt, and the regional segment shortening (% SS) in the ischemic/reperfused myocardium was calculated as follows: % SS=(EDL−ESL)/[…]×100
After hemodynamic stability is established following operation, the dissected portion of LAD was occluded for 30 minutes and then reperfused for 1 hour. At the same time, the cardiac function (% SS) in the above-described ischemic/reperfused region was continuously monitored throughout the protocol.
The animals were randomly grouped into two groups, one consisting of animals to be administered with 5-methyl-2-(1-piperazinyl)benzenesulfonic acid monohydrate (drug administration group; N=6) and the other of control group (N=6). […]

Test [4] deals with T1, sarcoplasmic reticulum calcium ion-ATPase (Canis lupus familiaris, UniProt O46674).
T1 construct: their hearts were isolated and the myocardium in post-ischemic region and non-ischemic region the left ventricles were collected; from tissue; host or cells: dog left-ventricle myocardium (post-ischemic and non-ischemic regions), sarcoplasmic reticulum fraction
T1 sequence (O46674 whole entry): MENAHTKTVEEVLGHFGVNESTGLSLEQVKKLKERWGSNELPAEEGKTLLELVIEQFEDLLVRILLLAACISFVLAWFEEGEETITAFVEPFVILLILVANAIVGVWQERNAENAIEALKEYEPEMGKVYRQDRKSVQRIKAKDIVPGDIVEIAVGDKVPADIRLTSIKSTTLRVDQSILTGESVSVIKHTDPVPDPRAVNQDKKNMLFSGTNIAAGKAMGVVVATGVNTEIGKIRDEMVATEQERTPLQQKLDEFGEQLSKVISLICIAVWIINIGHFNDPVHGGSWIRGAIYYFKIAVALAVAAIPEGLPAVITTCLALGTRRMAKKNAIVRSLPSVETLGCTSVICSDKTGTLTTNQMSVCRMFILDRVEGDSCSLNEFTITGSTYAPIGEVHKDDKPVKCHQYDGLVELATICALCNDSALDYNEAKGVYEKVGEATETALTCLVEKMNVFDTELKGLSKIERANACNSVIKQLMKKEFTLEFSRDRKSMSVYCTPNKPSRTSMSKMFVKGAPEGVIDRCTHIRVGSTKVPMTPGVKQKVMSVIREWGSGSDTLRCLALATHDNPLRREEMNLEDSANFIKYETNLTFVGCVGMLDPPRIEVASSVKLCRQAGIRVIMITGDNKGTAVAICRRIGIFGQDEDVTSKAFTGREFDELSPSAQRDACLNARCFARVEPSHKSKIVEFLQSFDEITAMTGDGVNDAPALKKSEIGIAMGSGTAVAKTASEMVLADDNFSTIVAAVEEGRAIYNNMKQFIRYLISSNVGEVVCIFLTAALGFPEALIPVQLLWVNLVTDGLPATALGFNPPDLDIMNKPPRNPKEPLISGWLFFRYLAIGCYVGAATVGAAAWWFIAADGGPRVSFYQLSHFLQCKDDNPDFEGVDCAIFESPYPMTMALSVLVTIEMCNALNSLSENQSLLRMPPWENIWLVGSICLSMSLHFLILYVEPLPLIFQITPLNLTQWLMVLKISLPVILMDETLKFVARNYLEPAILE
Nature of the test: Sarcoplasmic reticulum calcium ion-ATPase activity of myocardium fractions. The class given is biochemical, dog.

Test [5] relates to papillary muscle of the right ventricle. Nature of the test: Inhibition of the cardiotonic action of isoproterenol in isolated papillary muscle. Further details: species or system guinea-pig. Particulars: Cavia porcellus, read-out: Inhibition (%) of developed tension increased by isoproterenol. The protocol: For the evaluation of the extent of inhibiting overaccumulation of intracellular calcium ions, inhibition of the cardiotonic action of isoproterenol by the compounds described in Table 1 and Table 2 as mentioned above was measured.
That is to say, since isoproterenol has been known to cause calcium ions overload by excessive calcium ions influx into cardiac myocytes (Fleckenstein A., Janke J., Doring H., Leder O.; Recent advances in Studies on cardiac structure and metabolism, Myocardial Biology, Vol. 4, pp. 563-580 (1974)), the compounds which inhibit the action of isoproterenol can inhibit intracellular calcium ions overload.
The papillary muscle of the right ventricle isolated from male Hartley guinea-pigs (body weight: 250 to 350 g) was suspended in an organ bath filled with a nutrient solution (Krebs-Henseleit solution). The temperature of the nutrient solution was maintained at 32° C., and the solution was aerated with a gas mixture of 95% oxygen and 5% carbon dioxide. The papillary muscle was applied with a resting tension of about 0.5 g, and stimulated with platinum electrodes by a rectangular pulse of a duration of 1 msec, a frequency of 1 Hz and a voltage higher by 15% than the threshold value. The developed tension of the papillary muscle was measured through a tension transducer and recorded with a polygraph system. After the preparation was stabilized for about 90 minutes, isoproterenol ( 10^−3 to 10^−7 M) was added into the organ bath so that developed tension could be increased by 100% or more, and at the point when the maximum response was obtained, the compounds of the present invention were added into the organ bath, and % inhibition of the developed tension increased by isoproterenol was measured.

As for `Cc1ccc(N2CCNCC2)c(S(=O)(=O)O)c1.O` [5-methyl-2-(1-piperazinyl)benzenesulfonic acid monohydrate], the “reaction latency in the retention trial” value in test [1] (0.1 mg/kg oral, 48 h after 5-min ischemia, control 71.4±29.4, sham 206.1±29.4) turned out to be 97.7 ± 31.2 s; in test [1] (1 mg/kg oral, 48 h after 5-min ischemia, control 71.4±29.4, sham 206.1±29.4), 139.0 ± 27.5 s. The “number of hippocampus CA1 pyramidal cells (neuronal density)” value in test [2] (0.1 mg/kg oral 30 min before 10-min ischemia, 72 h after recirculation, control 31.2±13.3, sham 166.0±6.7) came to 74.3±16.0 per mm; in test [2] (1 mg/kg oral 30 min before 10-min ischemia, 72 h after recirculation, P<0.05 vs control 31.2±13.3), 104.1±21.9 per mm. Also, the “regional cardiac function (% SS) in post-reperfusion region compared to control group” value in test [3] was “significantly improved”. In addition, in test [4] (calcium ion concentration 10 μM, dogs given 3 μg/kg i.v. before reperfusion, control 0.070±0.004, P<0.05), the “calcium ion-ATPase activity of sarcoplasmic reticulum, post-ischemic region” value is given as 0.090±0.008 μmol Pi/mg min. Moreover, the “calcium ion-ATPase activity of sarcoplasmic reticulum, non-ischemic region” value in test [4] (calcium ion concentration 10 μM, dogs given 3 μg/kg i.v. before reperfusion, control 0.089±0.009, no significant difference) is on record as 0.088±0.006 μmol Pi/mg min.
As to `Cc1ccc(N2CCNCC2)c(S(=O)(=O)O)c1` [Compound 12, 5-methyl-2-(1-piperazinyl)benzenesulfonic acid], the inhibition at 1000 µM in test [5] (drug concentration 10^−3 M) worked out at 18.5%.
On to `CCCc1ccc(N2CCNCC2)c(S(=O)(=O)O)c1` [Compound 14, 5-n-propyl-2-(1-piperazinyl)benzenesulfonic acid], for which the “reaction latency in the retention trial” value came out at 253.4 ± 25.6 s in test [1] (0.03 mg/kg intravenous, 5-min ischemia, P<0.001, control 88.2±18.1, sham 243.5±31.6) and 187.2 ± 36.1 s in test [1] (0.3 mg/kg intravenous, 5-min ischemia, P<0.05, control 88.2±18.1, sham 243.5±31.6). For the same compound, the “reaction latency in the acquisition trial” value in test [1] (every group (0.03 and 0.3 mg/kg intravenous, control, sham), no significant difference) was “about 20 seconds”. The “number of hippocampus CA1 pyramidal cells (neuronal density)” value in test [2] (0.03 mg/kg, P<0.01, control 71.3±10.3, sham 177.8±5.3) stood at 125.1±5.7 per mm; in test [2] (0.3 mg/kg, P<0.05, control 71.3±10.3, sham 177.8±5.3), 131.9±9.9 per mm. Moreover, the inhibition at 100 µM in test [5] (drug concentration 10^−4 M) came to 19.2%. The inhibition at 10 µM in test [5] (drug concentration 10^−5 M) was 10.4%.
Regarding `C/C=C(/C)C(=O)O[C@H]1C(C)=C2[C@H]([C@@H]1OC(=O)CCCCCCC)[C@@](C)(OC(C)=O)C[C@H](OC(=O)CCC)[C@@]1(O)[C@H]2OC(=O)[C@@]1(C)O` [Thapsigargin, reference compound], in test [4] (1 μM added in vitro), the “inhibition of sarcoplasmic reticulum calcium ion-ATPase activity” value is recorded as “completely inhibited”.

A word on the inhibition: it is how much of the control response was suppressed.
